Data reported in PMC11085308, “Design, Synthesis and Biological Activity of Novel Methoxy- and Hydroxy-Substituted N-Benzimidazole-Derived Carboxamides” (Molecules, 2024).
In brackets after ≈: the same amount, converted by molar mass.

What was measured:
[1] = ABTS radical scavenging assay; conditions: for IC50: head prints 'mM (* µM)', no cell carries an asterisk
Description: (§1) The synthesized benzazole acrylonitrile derivatives were screened for their antioxidative potency by using in vitro assays, namely DPPH and ABTS as free radical scavenging assays and FRAP as a ferric reducing/antioxidant power assay.
(§2) The well-known antioxidant butylated hydroxytoluene (BHT) was used as a standard for comparing activity during testing. The DPPH assay is a standard commonly used test for the in vitro assessment of the antioxidant capacity of novel compounds by using their ability to scavenge the stable radical 1,1-diphenyl-picrylhydrazyl. […] Another test used to evaluate the antioxidative capacity of novel compounds was the ABTS test, by which their activity was evaluated by scavenging the stable radical 3-ethylbenzthiazoline-6-sulphonic acid.
The total antioxidant activity (TEAC) method was adapted for use with a microplate reader. […] On the day of analysis, the ABTS•+ solution was diluted with PBS (pH7.4) to attain an absorbance of 0.700 ± 0.01 at 734 nm. This radical state remained stable for over two days when stored in the dark at room temperature. The standards and solutions of the tested compounds (10 µL) were mixed with the working ABTS•+ solution (200 µL) in microplate wells and incubated at room temperature for 5 min. The reduction in absorbance at 734 nm was measured using a µQuant (Biotec Inc., Auburn, CA, USA) microplate reader. The percentage scavenging of the test samples at each concentration was calculated using the following formula:[(Abscontrol − Abscompound)/Abscontrol] × 100
The IC50 values for each compound were calculated from dose–response curves. All measurements where carried out in triplicate with a linear regression analysis.

S. aureus ATCC 29213 = test: Antibacterial activity in vitro, broth microdilution MIC; assay type: cell-based, Staphylococcus aureus; conditions: for MIC S. aureus ATCC 29213: broth microdilution, 16–24 h at 37 °C, unit inferred
Description: (§3) The in vitro antibacterial activity of the synthesized benzamides 7–12 and 31–37 was evaluated against a panel of eight different bacterial strains. The Gram-positive bacterial strains comprised S. aureus, S. pneumoniae and E. faecalis, and the panel of Gram-negative bacteria consisted of E. coli, K. pneumoniae, A. baumannii and P. aeruginosa.
(§4) The selected bacterial strains were Gram-negative Escherichia coli (ATCC 25922) and Gram-positive Staphylococcus aureus (ATCC 29213) and S. Pneumoniae (ATCC 49619). The Saccharomyces cerevisiae ATCC 7752 strain was tested as a eukaryotic model organism. Synthesized compounds were prepared as 10 mM DMSO solutions and tested in a final concentration range of 100–0.2 µM [39].
(§5) Broth microdilution testing was performed according to CLSI (Clinical Laboratory Standards Institute) guidelines. The MIC (minimal inhibitory concentration) value was defined as the last tested concentration of a compound at which there is no visible growth of bacteria. Inoculums for each microorganism were prepared using the direct colony suspension method, where broth solutions that achieved turbidity equivalent to 0.5 McFarland standards were additionally diluted 100× with cation-adjusted MH media (Becton Dickinson). All test plates were incubated for 16–24 h at 37 °C.

[2] = system: HEK 293 (human embryonic kidney); test: Antiproliferative activity in vitro, MTT assay, 72 h, non-cancerous cell line; assay type: cell-based; conditions: HEK293, 72 h incubation, '-' with footnote a = did not show biological activity due to precipitation
Description: (§6) The experiments were carried out on four human cell lines which are derived from three cancer types: H460 (lung carcinoma), HCT 116 (colorectal carcinoma), MCF-7 (human breast cancer) and the non-cancerous cell line HEK 293 (human embryonic kidney).
(§7) The results are compared with the known antiproliferative agents doxorubicin and etoposide. […] Therefore, it is not clear whether the observed antiproliferative activity is due to the biological activity of the compounds or to precipitation.
(§8) The experiments were performed on four human cell lines, including HCT 116 (colon carcinoma), H 460 (lung carcinoma), MCF-7 (breast carcinoma) and HEK 293 (human embryonic kidney cells), in line with previously published experimental procedures. Briefly, the cells were grown in DMEM medium with the addition of 10% fetal bovine serum (FBS), 2 mM of L-glutamine, 100 U/mL of penicillin and 100 µg/mL of streptomycin and cultured as monolayers at 37 °C in a humidified atmosphere with 5% CO2. Cells were seeded at 2 × 10^3 cells/well in standard 96-well microtiter plates and left to attach for 24 h. The next day, a test compound was added in five serial 10-fold dilutions. The rate of cell growth was evaluated after 72 h of incubation with MTT assays. […] Each test was performed in quadruplicate in at least two individual experiments.

[3] = DPPH free radical scavenging assay; conditions: compared to the standard BHT
Description: as §1, §2
Determination of the reducing activity of the stable radical 1,1-diphenyl-picrylhydrazyl (DPPH):
The reducing activity of the investigated systems was measured by the DPPH method according to previously described procedures with modifications to ensure their use on a 96-well microplate. Briefly, equal volumes of various concentrations of the tested molecules (dissolved in DMSO) were added to a solution of DPPH (final concentration of 50 µM in absolute ethanol). Ethanol and DMSO were used as control solutions in line with earlier reports. The radical scavenging activity was calculated using the following formula:[(A517 control − A517 compound)/A517 control] × 100.
The IC50 values were calculated from dose–response curves using nonlinear regression analysis with the GraphPad Prism 8 Ink. program. All measurements were carried out in triplicate.

E. coli efflux del. = test: microbe, parasite or virus in culture; assay type: cell-based, Escherichia coli; conditions: for MIC E. coli efflux del.: broth microdilution, 16–24 h at 37 °C, unit inferred
Description: as §3, §4, §5

[4] = system: MCF-7 (human breast cancer); test: Antiproliferative activity in vitro, MTT assay, 72 h; assay type: cell-based; conditions: MCF7, 72 h incubation
Description: as §6, §7, §8

H460 (lung carcinoma) = test: as above; assay type: cell-based; conditions: Homo sapiens, NCI-H460, 72 h incubation
Description: as §6, §7, §8

[5] = system: HCT 116 (colorectal carcinoma); test: as above; assay type: cell-based; conditions: Homo sapiens, 72 h incubation, '-' with footnote a = did not show biological activity due to precipitation
Description: as §6, §7, §8

[6] = Ferric reducing/antioxidant power (FRAP assay); parameters: FRAP: unit not given here; conditions: for FRAP: Fe2+ equivalents, triplicate; for FRAP ferric reducing/antioxidant power, in words: compared to the standard BHT
Description: as §1
The antioxidant activity of a substance is directly related to its reducing power.
The FRAP method was carried out according to previously described procedures with some modifications to make it compatible with an assay on a 96-well microplate. All results were expressed as Fe^2+ equivalents (Fe^2+ µmol). Ferrous sulphate (FeSO4 × 7H2O) was used to develop a standard curve of 20–2000 µmol/l for the FRAP test.

HCT 116 cells = test: Antioxidative activity assay in cells (ROS level, DCFH-DA fluorescence); assay type: cell-based, human; conditions: HCT 116, TBHP 100 µM plus 10 µM compound, 1 h, compared to NAC
Description: We further selected compounds 9, 10, 32 and 36, showing quite pronounced antioxidant capacity in the DPPH and FRAP assays, in order to test their pro- and antioxidant activity in tumor cells. In order to test the antioxidant activity of the selected compounds in tumor cells (Figure 2), we treated HCT 116 cells with tert-butyl hydroperoxide (TBHP), a substance commonly used for inducing oxidative stress in cells and tissues, alone or in combination with a known antioxidative agent, N-acetyl-L-cysteine (NAC), or the tested compounds. We measured the formation of oxidative stress byproducts using 2′,7′-dichlorodihydrofluorescein diacetate (DCFH-DA).
For the antioxidative activity assay, 2.5 × 10^4 cells were seeded into 96-well microtiter plates and left to attach for 24 h. The next day, cells were washed with PBS and incubated in FBS-free DMEM medium with 25 µM of DCFH-DA fluorescence dye. After 45 min of incubation, the medium was discarded, and the cells were washed with PBS.
After the washing step, the cells were incubated with 100 µM of tert-butyl hydroperoxide (TBHP) alone or in combination with antioxidative agents (50 mM of N-Acetyl-L-cysteine-NAC or 10 µM of the tested compounds) in PBS for 1 h at 37 °C. DCFH-DA fluorescence was recorded on a microplate fluorimeter reader (Tecan) with an excitation beam of 485 nm, while the emitted fluorescence was collected at 535 nm. All tests were presented as the means of two independent measurements carried out in triplicate. One-way ANOVA with Tukey’s post hoc test was used for statistical analysis: *—p < 0.05; **—p < 0.01; ***—p < 0.001.
Figure 2 Antioxidative activity of selected systems. HCT 116 cells were treated with a combination of H2O2 (4 mM) and N-acetyl-L-cysteine (NAC, 10 mM) or the tested compounds (10 mM). Treatment with H2O2 (4 mM) alone was used as a control for ROS induction. The level of reactive oxygen species (ROS) was measured with the fluorescent dye DCFH-DA using a fluorimeter. The data presented here are the results of three independent measurements carried out in triplicate. A one-way ANOVA with Tukey’s post hoc test was used for statistical analysis, *** p < 0.001; ns—not significant.

E. faecalis ATCC 29212 = test: Antibacterial activity in vitro, broth microdilution MIC; assay type: cell-based; conditions: for MIC E. faecalis ATCC 29212: broth microdilution, 16–24 h at 37 °C, unit inferred; for Selectivity of antibacterial activity, in words: against the Gram-positive strain E. faecalis
Description: as §3, §4, §5

A. baumannii ATCC 17978 = test: as above; assay type: cell-based; conditions: 16–24 h at 37 °C, unit inferred
Description: as §3, §4, §5

P. aeruginosa ATCC 27853 = test: as above; assay type: cell-based; conditions: 16–24 h at 37 °C, unit inferred
Description: as §3, §4, §5

E. coli ATCC 25922 = test: as above; assay type: cell-based, Escherichia coli; conditions: 16–24 h at 37 °C, unit inferred
Description: as §3, §4, §5

Structure (SMILES) | IC50 [1] | MIC S. aureus ATCC 29213 (S. aureus ATCC 29213) | IC50 [2] | DPPH free radical scavenging activity, in words [3] | MIC E. coli efflux del. (E. coli efflux del.) | IC50 [4] | IC50 (H460 (lung carcinoma)) | IC50 [5] | FRAP [6] | FRAP ferric reducing/antioxidant power, in words [6] | Level of ROS in cells under induced oxidative stress (HCT 116 cells) | MIC E. faecalis ATCC 29212 (E. faecalis ATCC 29212) | MIC A. baumannii ATCC 17978 (A. baumannii ATCC 17978) | MIC P. aeruginosa ATCC 27853 (P. aeruginosa ATCC 27853) | MIC E. coli ATCC 25922 (E. coli ATCC 25922) | melting point | Selectivity of antibacterial activity, in words (E. faecalis ATCC 29212) | further results
Cc1cc(C(C)(C)C)c(O)c(C(C)(C)C)c1 [BHT, butylated hydroxytoluene, reference compound] | 0.02312 ± 0.00012 mM |  |  |  |  |  |  |  |  |  |  |  |  |  |  |  |  | 
Cn1c(NC(=O)c2cc(O)c(O)c(O)c2)nc2ccccc21 [Compound 9, 3,4,5-trihydroxy-N-(1-methyl-1H-benzo[d]imidazol-2-yl)benzamide] |  | 64 µM (≈ 19.2 µg/mL) | 32.3 ± 6.5 µM | significantly improved | > 64 µM | 35.5 ± 5.2 µM | > 100 µM | > 100 µM | 4036.77 ± 8.82 | excellent in vitro antioxidant activity | reducing the level of ROS in the cells | 64 µM (≈ 19.2 µg/mL) | > 64 µM | > 64 µM | > 64 µM |  |  | 
O=C(Nc1nc2ccccc2[nH]1)c1ccc(O)cc1O [Compound 31, N-(1H-benzo[d]imidazol-2-yl)-2,4-dihydroxybenzamide] | 0.13 ± 0.006 mM | > 64 µM | 24.5 ± 6.4 µM |  | 64 µM (≈ 17.2 µg/mL) | 35.1 ± 6.9 µM | > 100 µM | 38.6 ± 15.6 µM | 89.29 ± 21.92 |  |  | 32 µM (≈ 8.62 µg/mL) | > 64 µM | > 64 µM | > 64 µM | 212 to 214 °C | selective antibacterial activity | 
O=C(Nc1nc2ccccc2[nH]1)c1cc(O)c(O)c(O)c1 [Compound 32, N-(1H-benzo[d]imidazol-2-yl)-3,4,5-trihydroxybenzamide] |  | > 64 µM | 66 ± 1.7 µM | significantly improved | > 64 µM | 39.8 ± 1.4 µM | > 100 µM | > 100 µM | 3245.79 ± 16.38 | excellent in vitro antioxidant activity | reducing the level of ROS in the cells | > 64 µM | > 64 µM | > 64 µM | > 64 µM | 230 to 234 °C |  | 
Cn1c(NC(=O)c2ccc(O)cc2O)nc2cc(C#N)ccc21 [Compound 35, N-(5-cyano-1-methyl-1H-benzo[d]imidazol-2-yl)-2,4-dihydroxybenzamide] | 0.19 ± 0.04 mM | > 64 µM | 33.5 ± 6.5 µM |  | 64 µM (≈ 19.7 µg/mL) | 8.7 ± 1.5 µM | > 100 µM | 10 ± 1.6 µM | 278.61 ± 3.28 |  |  | 16 µM (≈ 4.93 µg/mL) | > 64 µM | > 64 µM | > 64 µM | 273 to 275 °C | selective antibacterial activity | 
CCCCCCn1c(NC(=O)c2cc(O)c(O)c(O)c2)nc2cc(C#N)ccc21 [Compound 37, N-(5-cyano-1-hexyl-1H-benzo[d]imidazol-2-yl)-3,4,5-trihydroxybenzamide] | 0.002 ± 0.0001 mM | 16 µM (≈ 6.31 µg/mL) | 37.9 ± 0.4 µM | significantly improved | 16 µM (≈ 6.31 µg/mL) | 38.2 ± 3.2 µM | 47 ± 8.7 µM | 37.8 ± 6 µM | 2780.81 ± 15.12 | excellent in vitro antioxidant activity |  | 16 µM (≈ 6.31 µg/mL) | > 64 µM | > 64 µM | > 64 µM | 290 to 294 °C | selective antibacterial activity | MIC (S. aureus ATCC 29213; Staphylococcus aureus, ATCC29213, read-out: MIC S. aureus): 16 µM (≈ 6.31 µg/mL); MIC (E. coli efflux del.; Escherichia coli, read-out: MIC E. coli efflux del.): 16 µM (≈ 6.31 µg/mL); ABTS antioxidative activity, in words ([1]; in comparison to the standard BHT): pronounced antioxidative activity; MIC (E. faecalis ATCC 29212; Enterococcus faecalis, ATCC29212, read-out: MIC E. faecalis): 16 µM (≈ 6.31 µg/mL)
